Legend:
[1] = Biodistribution and PET statements pooled over Kelly and SK-N-BE(2)C xenograft-bearing mice; assay type: in vivo; details: 1 h p.i.
Procedure: When the tumours reached approximately 100–200 mm^3, mice were anaesthetised with an isoflurane/O2 mixture (1.5–2.0% v/v) and intravenously injected with either ^18F-mFBG (~ 7.5 MBq) or ^123I-mIBG (~ 20 MBq). Mice were then imaged using an Albira PET/SPECT/CT scanner (Bruker, Coventry, UK). […] Acquisition, reconstruction and image analysis were performed as described previously. Following the final scan, the mice were sacrificed and the major organs were excised, weighed and their associated radioactivity was measured using a γ-counter. Biodistribution and image quantification were expressed as a percentage of injected dose per gram of tissue (%ID/g), whereby 1 cm^3 on PET acquisitions were assumed to equal 1 g (n ≥ 3 mice ± SD).

NET-1 = target: T1, NET-1 (Homo sapiens, UniProt P23975); assay: ^18F-mFBG / ^123I-mIBG uptake in NB cell lines with and without desipramine; assay type: cell-based; details: 1 h at 37 °C, rank among Kelly, SK-N-SH, NBLS
T1 construct: SK-N-SH, SK-N-BE(2)C, Kelly, NBLS human NB cell lines; endogenous in cells; host or cells: SK-N-SH, SK-N-BE(2)C, Kelly, NBLS human neuroblastoma cell lines
Text: Figure 1 (a) Simplified radiosynthesis scheme of ^18F-mFBG by copper-mediated deborylation. (b) Total NET-1 protein expression in selected NB cell lines determined by Western blot. Full length blots are presented in Supplementary Figure WB1. […] Data are presented as mean ± SEM, n ≥ 2 per group, performed in triplicate. Graphs are generated using GraphPad Prism (v 8.4.1), https://www.graphpad.com.
For each cell line the cell-associated radioactivity was normalised to the number of cells and then each group was presented as a percentage of the signal acquired for SK-N-BE(2)C cells (mean of n = 3 independent experiments performed in triplicate ± SEM).

SK-N-BE(2)C xenografts = assay: PET quantification of tumour uptake, SK-N-BE(2)C xenografts; assay type: in vivo, mice
Procedure: (§1) When the tumours reached approximately 100–200 mm^3, mice were anaesthetised with an isoflurane/O2 mixture (1.5–2.0% v/v) and intravenously injected with either ^18F-mFBG (~ 7.5 MBq) or ^123I-mIBG (~ 20 MBq). Mice were then imaged using an Albira PET/SPECT/CT scanner (Bruker, Coventry, UK). Whole body PET static images were acquired after 1 and 4 h post-injection (p.i.) for 10 min with an energy window of 358 to 664 keV followed by CT acquisition. Acquisition, reconstruction and image analysis were performed as described previously. Following the final scan, the mice were sacrificed and the major organs were excised, weighed and their associated radioactivity was measured using a γ-counter. Biodistribution and image quantification were expressed as a percentage of injected dose per gram of tissue (%ID/g), whereby 1 cm^3 on PET acquisitions were assumed to equal 1 g (n ≥ 3 mice ± SD).

Kelly xenografts = assay: Ex vivo biodistribution (γ-counter), mice bearing Kelly xenografts; assay type: in vivo; details: for ^18F-mFBG biodistribution 4 h p.i., Blood / ^18F-mFBG biodistribution 4 h p.i., Bone / ^18F-mFBG biodistribution 4 h p.i., Brown adipose / ^18F-mFBG biodistribution 4 h p.i., Heart / ^18F-mFBG biodistribution 4 h p.i., Kidney / ^18F-mFBG biodistribution 4 h p.i., Liver / ^18F-mFBG biodistribution 4 h p.i., Lungs / ^18F-mFBG biodistribution 4 h p.i., Muscle / ^18F-mFBG biodistribution 4 h p.i., Pancreas / ^18F-mFBG biodistribution 4 h p.i., Small intestine / ^18F-mFBG biodistribution 4 h p.i., Spleen / ^18F-mFBG biodistribution 4 h p.i., Tumour / ^18F-mFBG biodistribution 4 h p.i., Tumour:blood / ^18F-mFBG biodistribution 4 h p.i., Tumour:muscle: Kelly, 3 days
Procedure: All studies were conducted in compliance with licenses issued under the UK Animals (Scientific Procedures) Act 1986 and approved by the Institute of Cancer Research Animal Welfare and Ethical Review Body (AWERB) according to the United Kingdom National Cancer Research Institute Guidelines for Animal Welfare in Cancer Research (project license PCC916B22, Animals in Science Regulation Unit, Home Office Science, London, UK)[65]. Female Nu(NCr)-Foxn1nu mice (5–7 weeks; 20–22 g) obtained from an in-house breeding colony were used in the studies. Animals were housed in a temperature-controlled facility with 12 h on–12 h off light cycle and provided water and laboratory rodent food ad libitum. Subcutaneous xenografts were generated by injection of either Kelly (5 × 10^6/0.1 mL PBS/Matrigel 30% v/v; BD Matrigel Matrix, BD Bioscience, San Jose, California, US) or SK-N-BE(2)C (1 × 10^6/0.1 mL PBS/Matrigel) into the lower flank. For the treatment studies, AZD2014 stock solution in DMSO was diluted in PEG400 to a final concentration of 2 mg/mL (10% DMSO maximum). When tumours reached ~ 100 mm^3 (calliper measurements using formula: Volume = (Width(2) × Length)/2), mice were treated daily, for a total of either 1, 3 or 7 days, by oral gavage with AZD2014 (20 or 25 mg/kg/day) or vehicle control. Mice were monitored daily for body weight or other adverse effects.
as §1

T1 sequence (P23975 whole entry): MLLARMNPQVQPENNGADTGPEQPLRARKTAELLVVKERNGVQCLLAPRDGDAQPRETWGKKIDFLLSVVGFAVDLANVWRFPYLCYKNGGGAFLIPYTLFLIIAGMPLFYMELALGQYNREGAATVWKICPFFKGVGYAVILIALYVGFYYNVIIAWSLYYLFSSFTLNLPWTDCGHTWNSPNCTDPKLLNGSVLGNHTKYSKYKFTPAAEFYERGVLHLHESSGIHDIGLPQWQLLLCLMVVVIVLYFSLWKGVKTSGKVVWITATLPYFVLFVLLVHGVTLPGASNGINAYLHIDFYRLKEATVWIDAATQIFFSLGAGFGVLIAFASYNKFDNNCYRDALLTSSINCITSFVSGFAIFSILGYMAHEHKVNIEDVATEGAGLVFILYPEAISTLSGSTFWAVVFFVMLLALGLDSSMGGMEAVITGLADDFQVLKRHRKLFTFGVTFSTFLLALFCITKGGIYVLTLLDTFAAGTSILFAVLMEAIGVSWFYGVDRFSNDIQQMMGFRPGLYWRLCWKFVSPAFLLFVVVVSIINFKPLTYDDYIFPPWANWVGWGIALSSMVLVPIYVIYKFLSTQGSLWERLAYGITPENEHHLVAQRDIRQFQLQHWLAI

**Q.** Which results are given for N=C(N)NCc1cccc([18F])c1 [^18F-mFBG, ^18F-meta-fluorobenzylguanidine]?
**A.** radiotracer uptake, brown adipose tissue (BAT) [1]: > 7.0 %ID/g; radiotracer uptake, heart [1]: > 12.0 %ID/g; radiotracer uptake, small intestine [1]: ~ 8.0 %ID/g; cell-associated radioactivity, SK-N-BE(2)C (NET-1): greatest uptake; cell-associated radioactivity, Kelly (NET-1; SK-N-BE(2)C): least uptake; PET tumour uptake (SK-N-BE(2)C xenografts; 1 h p.i., n = 21): 2.46 ± 0.71 %ID/g; PET tumour uptake (SK-N-BE(2)C xenografts; 4 h p.i., n = 15): 3.88 ± 1.15 %ID/g; tumour uptake (Kelly xenografts; Kelly xenografts, 4 h p.i., n = 3): 0.30 ± 0.14 %ID/g; ^18F-mFBG biodistribution 4 h p.i., Blood (Kelly xenografts; AZD2014 (25 mg/kg/day)): 0.19 ± 0.03 %ID/g; ^18F-mFBG biodistribution 4 h p.i., Bone (Kelly xenografts; AZD2014 (25 mg/kg/day)): 0.99 ± 0.07 %ID/g; ^18F-mFBG biodistribution 4 h p.i., Brown adipose (Kelly xenografts; AZD2014 (25 mg/kg/day)): 7.20 ± 0.88 %ID/g; ^18F-mFBG biodistribution 4 h p.i., Heart (Kelly xenografts; AZD2014 (25 mg/kg/day)): 4.22 ± 0.85 %ID/g; ^18F-mFBG biodistribution 4 h p.i., Kidney (Kelly xenografts; AZD2014 (25 mg/kg/day)): 0.97 ± 0.17 %ID/g; ^18F-mFBG biodistribution 4 h p.i., Liver (Kelly xenografts; AZD2014 (25 mg/kg/day)): 2.08 ± 0.45 %ID/g; ^18F-mFBG biodistribution 4 h p.i., Lungs (Kelly xenografts; AZD2014 (25 mg/kg/day)): 1.31 ± 0.39 %ID/g; ^18F-mFBG biodistribution 4 h p.i., Muscle (Kelly xenografts; AZD2014 (25 mg/kg/day)): 0.64 ± 0.17 %ID/g; ^18F-mFBG biodistribution 4 h p.i., Pancreas (Kelly xenografts; AZD2014 (25 mg/kg/day)): 1.25 ± 0.21 %ID/g; ^18F-mFBG biodistribution 4 h p.i., Small intestine (Kelly xenografts; AZD2014 (25 mg/kg/day)): 7.30 ± 1.11 %ID/g; ^18F-mFBG biodistribution 4 h p.i., Spleen (Kelly xenografts; AZD2014 (25 mg/kg/day)): 4.58 ± 0.77 %ID/g; ^18F-mFBG biodistribution 4 h p.i., Tumour (Kelly xenografts; AZD2014 (25 mg/kg/day)): 0.74 ± 0.25 %ID/g; ^18F-mFBG biodistribution 4 h p.i., Tumour:blood (Kelly xenografts; AZD2014 (25 mg/kg/day)): 4.16 ± 1.89; ^18F-mFBG biodistribution 4 h p.i., Tumour:muscle (Kelly xenografts; AZD2014 (25 mg/kg/day)): 1.23 ± 0.61; ^18F-mFBG biodistribution 4 h p.i., Blood (Kelly xenografts; Vehicle): 0.22 ± 0.05 %ID/g; ^18F-mFBG biodistribution 4 h p.i., Bone (Kelly xenografts; Vehicle): 1.43 ± 0.83 %ID/g; ^18F-mFBG biodistribution 4 h p.i., Brown adipose (Kelly xenografts; Vehicle): 5.84 ± 2.44 %ID/g; ^18F-mFBG biodistribution 4 h p.i., Heart (Kelly xenografts; Vehicle): 6.34 ± 1.41 %ID/g; ^18F-mFBG biodistribution 4 h p.i., Kidney (Kelly xenografts; Vehicle): 1.11 ± 0.47 %ID/g; ^18F-mFBG biodistribution 4 h p.i., Liver (Kelly xenografts; Vehicle): 2.37 ± 0.71 %ID/g; ^18F-mFBG biodistribution 4 h p.i., Lungs (Kelly xenografts; Vehicle): 1.52 ± 0.22 %ID/g; ^18F-mFBG biodistribution 4 h p.i., Muscle (Kelly xenografts; Vehicle): 0.74 ± 0.23 %ID/g; ^18F-mFBG biodistribution 4 h p.i., Pancreas (Kelly xenografts; Vehicle): 1.26 ± 0.28 %ID/g; ^18F-mFBG biodistribution 4 h p.i., Small intestine (Kelly xenografts; Vehicle): 6.57 ± 1.12 %ID/g; ^18F-mFBG biodistribution 4 h p.i., Spleen (Kelly xenografts; Vehicle): 3.77 ± 0.82 %ID/g; ^18F-mFBG biodistribution 4 h p.i., Tumour (Kelly xenografts; Vehicle): 0.39 ± 0.13 %ID/g; ^18F-mFBG biodistribution 4 h p.i., Tumour:blood (Kelly xenografts; Vehicle): 1.75 ± 0.29; ^18F-mFBG biodistribution 4 h p.i., Tumour:muscle (Kelly xenografts; Vehicle): 0.53 ± 0.01
